Measured values from publication PMC2832019, “In Vitro Metabolic and Mitogenic Signaling of Insulin Glargine and Its Metabolites” (PLoS ONE, 2010).

Assays:
[1] = test system: MCF-7 cells, HCT-116 (colorectal cancer) and PC-3 (prostate cancer) cells; conditions: ref [49]; cited from earlier work
Source text: A correlation between IGF1R autophosphorylation and cell proliferation has been recently assumed by Shukla et al., who observed an enhanced growth of the malignant cell line MCF7 after insulin glargine stimulation. The authors have observed 10% and 50% increases of cellular proliferation at 0.31 and about 15 nmol/L. […] Unfortunately, no dose-response curve of IGF1R autophosphorylation as well as no proliferation data from siRNA knockdown of IR have ...

human IR-B [2] = experiment: Competitive receptor binding (SPA), IR-B
Procedure: (§1) The binding of the different insulins to the human IR-A and IR-B was analyzed in a competitive binding assay using the scintillation proximity assay as previously described, [30]. […] Briefly, cells were grown to confluence and gently detached, transferred to a centrifugation tube followed by centrifugation for 10 minutes at 600×g at 4°C. The pellet was resuspended in ice-cold 2.25 STM buffer (2.25 mol/L sucrose, 5 mmol/L Tris-HCl pH 7.4, 5 mmol/L MgCl2, 1x Complete Protease Inhibitor) and disrupted using a hand-held Dounce homogenizer followed by sonication. This homogenate was transferred to a centrifugation tube, overlaid with 0.8 STM buffer (0.8 mol/L sucrose, 5 mmol/L Tris-HCl pH 7.4, 5 mmol/L MgCl2, 1x Complete Protease Inhibitor) and centrifuged for 90 minutes at 100 000×g at 4°C. The emerging pellicle at the interface was collected, transferred to a new tube and washed two times with PBS by centrifugation for 10 minutes at 1500×g. The final pellet was resuspended in a small volume of dilution buffer (50 mmol/L Tris-HCl pH 7.4, 5 mmol/L MgCl2, 1x Complete Protease Inhibitor) and homogenized with a Dounce homogenizer. These plasma membrane preparations were stored until usage at –80°C.
(§2) Binding experiments were conducted in 96-well microplates. Per well 2 µg of membranes were incubated with 0.25 mg wheat germ agglutinin polyvinyltoluene polyethylenimine SPA beads, 100 pmol/L A14[^125I]-insulin and various concentrations of unlabeled insulins in a binding buffer containing 0.05 mol/L Tris-HCl pH 7.8, 0.15 mol/L NaCl, 0.1% BSA, Complete Protease Inhibitor for 12 hours at room temperature (23°C). The radioactivity was measured at equilibrium in a microplate scintillation counter (Wallac Microbeta, Freiburg, Germany).
(§3) For each experiment, IC50 or EC50 values were obtained using the 4-parameter logistic model according to Ratkowsky and Reedy (1986). The adjustment was obtained by non-linear regression using the Levenberg-Marquardt algorithm in SAS v9.1.3 software via Biost@t-Speed V2.0-LTS internal application. If necessary, lower and upper asymptotes were set to 0 and 100, respectively.
(§4) The binding of a constant concentration of [^125I]insulin to plasma membranes from CHO cells overexpressing either IR-A or IR-B was measured in presence of increasing concentrations of unlabeled competing ligand after incubation at room temperature for 12 h. All data has been corrected for non-specific binding and are expressed as percentage of [^125I]insulin in absence of competing ligand. To analyze the insulin-stimulated activation and subsequent autophosphorylation of the insulin receptor CHO cells overexpressing the human IR-A (C) or IR-B (D) were stimulated for 15 min at 37°C with increasing concentrations of peptides, then the cells were fixed with 3.7% PFA and the amount of phosphotyrosines was analyzed via In-Cell Western. The data represent mean values ± SEM of at least 3 individual experiments measured in quadruplicate.

human IR-B [3] = experiment: IR-B autophosphorylation (In-Cell Western); type: cell-based; conditions: CHO cells overexpressing IR-B, 15 min at 37°C, In-Cell Western; means ± SEM, at least three times; read-out: IR-B auto-phosphorylation EC50
Source text: (§5) CHO cells expressing either the IR-A or the IR-B isoform were used for IR autophosphorylation assays using In-Cell Western. For the analysis of IGF1R autophosphorylation the receptor was overexpressed in a mouse embryo fibroblast 3T3 Tet off cell line (BD Bioscience, Heidelberg, Germany) that was stably transfected with IGF1R tetracycline-regulatable expression plasmid resulting in the expression of ∼2.6×10^5 IGF1R per cell (as determined by FACS analysis, unpublished data). In order to determine the receptor tyrosine phosphorylation level, cells were seeded into 96-well plates and grown for 48 h. Cells were serum starved with serum-free medium αMEM (PAN Biotech GmbH, Aidenbach, Germany) for 3–4 h. […] After incubation the medium was discarded and the cells were fixed in 3.75% freshly prepared para-formaldehyde for 20 min. Cells were permeabilized with 0.1% Triton-X-100 in PBS for 20 min. Blocking was performed with Odyssey blocking buffer (LI-COR, Bad Homburg, Germany) overnight at 4°C. Anti-pTyr 4G10 (Millipore, Schwalbach, Germany) was incubated for 2 h at room temperature. After incubation of the primary antibody, cells were washed with PBS+0.1% Tween20. The secondary anti-mouse-IgG-800-CW antibody (Rockland, Gilbertsville, PA, USA) was incubated for 1 h. Results were normalized by the quantification of DNA with TO-PRO3 dye (Invitrogen, Karlsruhe, Germany). Data were obtained as relative units (RU) and are presented as fold over basal.
as §3, §4
(§6) Insulin receptor autophosphorylation was studied using CHO cells overexpressing either IR-A or IR-B. For detection an immunocytochemical microplate assay (In-Cell Western) based on two-colour fluorescence was applied.

human IR-A [4] = experiment: IR-A autophosphorylation (In-Cell Western); type: cell-based; conditions: CHO cells overexpressing IR-A, 15 min at 37°C, In-Cell Western; means ± SEM, at least three times; read-out: IR-A auto-phosphorylation EC50
Source text: as §5, §3, §4, §6

human IGF1R = experiment: Competitive binding, IGF1R; conditions: [^125I]IGF-1 as radioactive ligand; means ± SEM, at least three times; read-out: IGF1R affinity IC50
Procedure: as §2, §3
Figure 4 Activity of insulin analogs on the human IGF1R and mitogenic potential in Saos-2 cells. Analysis of binding to the human IGF1R using [^125I]IGF-1 as radioactive ligand (A) and analysis of the insulin-stimulated autophosphorylation of the human IGF1R overexpressed in MEF cells (B) were done as described in figure 2 and Materials and Methods. Data are given as means ± SEM. […] Confluent cells were starved for 4 h and then incubated for 19 h with increasing concentrations of IGF-1, insulin or analog in serum free medium. [^14C]thymidine was added for further 6 h and the radioactivity measured in a Wallac Micro Scintillation counter. Data are given as means ± SEM from octuplicate sample.

human IR-A [5] = experiment: Competitive receptor binding (SPA), IR-A
Procedure: as §1, §2, §3, §4

Row | IC50 (human IR-B [2]; SPA, WGA PVT PEI beads, 2 µg membranes from CHO cells overexpressing IR-B, 100 pmol/L A14[^125I]-insulin, pH 7.8, 12 h, 23°C, means ± SEM, at least three times, read-out: IR-B affinity IC50) | EC50 (human IR-B [3]) | EC50 (human IR-A [4]) | IC50 (human IGF1R) | higher affinity for IR-A than IR-B (human IR-A [5]; IR-A relative to IR-B) | IC50 (human IR-A [5]; SPA, WGA PVT PEI beads, 2 µg membranes from CHO cells overexpressing IR-A, 100 pmol/L A14[^125I]-insulin, pH 7.8, 12 h, 23°C, means ± SEM, at least three times, read-out: IR-A affinity IC50) | Substance | mitogenic potency [1] | IR-B binding relative to IGF-1 and human insulin (human IR-B [2]; IR-B, in words) | IR-A binding relative to IGF-1 and human insulin (human IR-A [5]; IR-A, in words)
1 |  |  |  |  |  |  | insulin detemir | increased mitogenic potency |  | 
2 | 46.6 ± 7.8 nM | 384 ± 68.4 nM | 85.4 ± 5.5 nM | 6.68 ± 2.24 nM | 7.5 fold | 6.2 ± 0.34 nM | IGF-2: IGF-2 obtained from R&D Systems and Cell Sciences |  | higher affinity than IGF-1 but with lower affinity than human insulin | higher affinity than IGF-1 but with lower affinity than human insulin
